Literature values in patent US20130274214A1, “METHOD FOR TREATING BLEPHARITIS” (INSPIRE PHARMACEUTICALS, INC., priority 2010, published 2013).

Tested on: meibomian gland secretions (meibum)
Details: daily topical administration to the ocular surface; subjects with meibomian gland dysfunction

CC[C@H]1OC(=O)[C@H](C)[C@@H](O[C@H]2C[C@@](C)(OC)[C@@H](O)[C@H](C)O2)[C@H](C)[C@@H](O[C@@H]2O[C@H](C)C[C@H](N(C)C)[C@H]2O)[C@](C)(O)C[C@@H](C)CN(C)[C@H](C)[C@@H](O)[C@]1(C)O [azithromycin]
physicochemical properties of the meibum: improved the physicochemical properties of the meibum towards that of normal subjects
